The text below walks through data of patent publication US8097619B2, “Inhibitors of cyclin-dependent kinases, compositions and uses related thereto” (Agennix USA Inc., priority 2003, dated 2012).

Bounds are passed on as bounds.

Series [1] relates to HCT-116 cells. Nature of the series: Clonogenic survival assay with HCT-116 cells. Type of series: cell-based, human. Particulars: at 100 nM, time-course (FIG. 3). The method, then:
This assay was used to determine the concentration of a compound that results irreversible loss of viability after a specified period of exposure. Essentially, cells are exposed to compound for a period of 1, 2 or 5 days, and are then transferred to compound-free growth medium. After continued incubation in the compound-free medium for a number of days, the number of colonies recovered is counted as an estimate of the number of surviving cells.
Media (RPMI-1640, 10% FCS, pen/strep) was pre-warmed to 37° C. in a water bath. Cells were incubated and grown at 37° C., 5% CO2. Cells were recovered by trypsinization from sub-confluent plates and counted using a hemocytometer. 1×10^4 cells were plated in 25 mls of media in a 15 cm tissue culture dish. 14 plates were set up for each test compound, and were incubated overnight at 37° C. The compound was diluted into media at 7 concentrations and the media on the cells was replaced with that containing the test compound. Two plates were set up for each concentration of the compound to be tested, as well as two control plates without compound. […] Colonies were stained with crystal violet solution (0.4% crystal violet, 20% ethanol) for 5 minutes, washed twice with distilled water, and counted.

Series [2] concerns HCT-116 cells. As to the kind of experiment: Cell cycle analysis with propidium iodide (FACS). Type of series: cell-based, human. Conditions: exposure 24, 48 and 72 hours. The method, then: The percentage of cells in the G1, S and G2/M phases of the cell cycle was determined by staining DNA with propidium iodide and quantifying the number of cells with a 2N or 4N DNA complement by flow cytometry. Alterations in the distribution of cells across the cell cycle in response to exposure to the Cdk inhibitors was evaluated in this manner.
3 sets of HCT-116 cells (100,000 cells/set) were cultured in the presence of a test compound in T-25 flasks according to Table 1 below. Analysis was performed at 24, 48 and 72 hours. Adherent cells were collected by trypsinization, combined with floating cells in Falcon 12×75 flow cytometric tubes, and harvested by centrifugation. The media was decanted from the cell pellet, 100 μl of PI stain was added and the cells were incubated at 37° C. for 20-25 minutes. The cell count was preferably no greater than 2×10^6-4×10^6/ml. An equal volume (100 μl) of PI salt was then added to the cells, which were then incubated at 4° C. for 1-2 hours. The stained cells were analyzed on a Becton Dickinson FACScan flow cytometer. Samples were protected from light.

The next series deals with HIV-1ROJO. Nature of the series: Antiviral activity in infected PBMCs (reverse transcriptase in supernatant). Type of series: cell-based. The method, then: (§1) The activity of the certain compounds of the invention was evaluated in peripheral blood mononuclear cells (PBMCs) infected with the low passage, clinical isolate HIV-1ROJO to generate a measure of the efficacy of these compounds in acutely infected cells. The use of these normal human cells allows an estimate of the therapeutic index of these compounds to be made. Fresh PBMCs from two donors were pooled and stimulated with PHA-P for 48-72 hours. The cells were then cultured in the presence of IL-2 to maintain the cell division initiated by the mitogenic signal. The virus was added at a multiplicity of infection of 0.1. The cells were cultured for 7 days post infection prior to the evaluation of efficacy. Viral replication was measured by the level of reverse transcriptase activity in the supernatant and cytotoxicity was measured with the MTS assay.

Series [3] relates to peripheral blood mononuclear cells (PBMCs). Nature of the series: Cytotoxicity in PBMCs (MTS assay). Type of series: cell-based, human. Conditions: read-out: TC50 (μM): 50% cytoxicity (MTS), 7 days. The method, then: as §1
The test system of series [4] is HCT-116 cells. As to the kind of experiment: Calcein AM viability assay, HCT-116. Type of series: cell-based. Particulars: Homo sapiens, non-protein adjusted, Table 6. The method, then: The potency of Cdk inhibitors, as measured by loss of cellular viability, was determined with the Calcein AM assay (Molecular Probes). Calcein AM is a substrate of intracellular esterases, which is cleaved only in viable cells to generate a fluorescent product that can be quantified with a fluorescent plate reader. The fluorescent signal is proportional to the number of viable cells, and thus loss of signal in response to the exposure of cells to Cdk inhibitors correlates with a loss of viability. This assay can distinguish cell cycle arrest, in which cells may still by viable, from loss of viability and is thus well suited for the evaluation of Cdk inhibitors. A compound that is a potent cytotoxic, may cause significant loss of cell viability in such assay.
Cellular IC50's were determined in the human colorectal carcinoma cell line, HCT-116, and the normal human fibroblast, IMR90. Protein adjusted IC50's were also determined in HCT-116.
HCT-116 or IMR90 cells were recovered from sub-confluent plates by trypsinization and 1,000 or 4,000 cells, respectively, were plated in 24-well dishes and incubated overnight at 37° C., 5% CO2. […]
A 5 μM Calcein AM solution was prepared by dissolving a 50 μg aliquot of Calcein (Molecular Probes catalog #C3100) in 50 μl DMSO. […] (protected from light) and the fluorescent signal was read on a fluorescent plate reader (excitation 485/20 and emission 530/25).

Regarding `COCCN1CCN(Cc2ccc(-c3[nH]nc4c3C(=O)c3c(NC(=O)NN5CCOCC5)cccc3-4)cc2)CC1.Cl.Cl` [Compound B16], the “time within which IC50 reached” value in the series on HCT-116 cells [1] is recorded as 30 to 60 min. Also, the “effect on cell cycle distribution (PI FACS)” value in the series on HCT-116 cells [2] is recorded as “Analogous results”.
`Cc1cn([C@H]2C[C@H](N=[N+]=[N-])[C@@H](CO)O2)c(=O)[nH]c1=O` [AZT, reference compound]: the “TI: TC50/IC50” value with HIV-1ROJO is given as more than 100. Besides, the CC50 in series [3] was more than 1 µM.
`CC(C)c1nn(-c2c(Cl)cccc2Cl)c2nc(Cc3ccc(OCCN4CCOCC4)c(O)c3)[nH]c(=O)c12` [Compound A32]: the “TI: TC50/IC50” value in the series on HIV-1ROJO is listed as more than 10.
The same measure, in the same setting: as for `CC(C)c1nn(-c2c(Cl)cc(Cl)cc2Cl)c2nc(Cc3ccc(OCCO)cc3)[nH]c(=O)c12` [Compound A61], the figure is more than 10; as for `CC(C)c1nn(-c2c(Cl)cc(Cl)cc2Cl)c2nc(Cc3ccc(OCC(C)(C)O)cc3)[nH]c(=O)c12` [Compound A64], more than 10; as for `CC(C)c1nn(-c2c(Cl)cc(Cl)cc2Cl)c2nc(Cc3ccc(CNC(CO)CO)n3C)[nH]c(=O)c12.Cl` [Compound C4], more than 1.
Turning to `CC(C)N1CCN(C(=O)COc2ccc(-c3[nH]nc4c3C(=O)c3c(NC(=O)NN5CCOCC5)cccc3-4)cc2)CC1.Cl` [Compound A37], the “effect on cell cycle distribution (PI FACS)” value in the series with HCT-116 cells [2] was “terminally arrested in G1 and G2, with evidence of apoptosis and endo-reduplication”.
As for `CC(C)c1nn(-c2c(Cl)cccc2Cl)c2nc(Cc3ccc(CN4CCCC4)c(O)c3)[nH]c(=O)c12.Cl` [Compound C3], in the series on HIV-1ROJO, the “TI: TC50/IC50” value was more than 10.
For the compound `O=C(Nc1cccc2c1C(=O)c1c(-c3ccc(CN4CCCC4CO)cc3)n[nH]c1-2)NN1CCOCC1` (centres unmarked) [Compound B6], the IC50 in the series with HCT-116 cells [4] is less than 0.1 µM.
